From patent publication US20110319392A1, “Thiazole Sulfonamide And Oxazole Sulfonamide Kinase Inhibitors” (priority 2009, published 2011)

Legend:
Colo205 tumor cells = test: Cell growth inhibition assay (CellTiter-Glo), Colo205; format: cell-based, Human; settings: Homo sapiens, COLO 205, 72 h; 3 days incubation
Method in brief: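 Readout was CellTiter-Glo luminescence (total ATP, surrogate for cell number) after 3-day exposure at 37° C, 5% CO2 to 1:3 serial compound dilutions in 0.2% final DMSO. Seeding was 500 cells/well; IC50 derived by 4-parameter fit relative to vehicle-treated wells.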

A375P F11s tumor cells = test: Cell growth inhibition assay (CellTiter-Glo), A375P F11s; format: cell-based, Human; settings: for IC50: Homo sapiens
Method in brief: (§1)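 Cells seeded at 500/well (HN5 and HT-29 in high-glucose DMEM/10% FBS; A375P F11s in RPMI/10% FBS with pyruvate; SK-MEL-3 in McCoy's 5A/15% FBS), then exposed next day to 1:3 serial compound dilutions (0.2% DMSO) for 3 days at 37° C. CellTiter-Glo luminescence measured ATP; IC50 derived by 4-parameter fit.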

HN5 tumor cells = test: Cell growth inhibition assay (CellTiter-Glo), HN5; format: cell-based, Human; settings: Homo sapiens, 72 h; 3 days incubation
Method in brief: as §1

BT474 tumor cells = test: Cell growth inhibition assay (CellTiter-Glo), BT474; format: cell-based, Human; settings: Homo sapiens, BT-474, 72 h, 3 days incubation
B-Raf = B-Raf (Homo sapiens, UniProt P15056); test: B-Raf Accelerated MEK ATPase assay (BRAMA), Method A or B; format: biochemical; settings: Method B: final MEK 150 nM, single end point read
Sequence of B-Raf (P15056 whole entry): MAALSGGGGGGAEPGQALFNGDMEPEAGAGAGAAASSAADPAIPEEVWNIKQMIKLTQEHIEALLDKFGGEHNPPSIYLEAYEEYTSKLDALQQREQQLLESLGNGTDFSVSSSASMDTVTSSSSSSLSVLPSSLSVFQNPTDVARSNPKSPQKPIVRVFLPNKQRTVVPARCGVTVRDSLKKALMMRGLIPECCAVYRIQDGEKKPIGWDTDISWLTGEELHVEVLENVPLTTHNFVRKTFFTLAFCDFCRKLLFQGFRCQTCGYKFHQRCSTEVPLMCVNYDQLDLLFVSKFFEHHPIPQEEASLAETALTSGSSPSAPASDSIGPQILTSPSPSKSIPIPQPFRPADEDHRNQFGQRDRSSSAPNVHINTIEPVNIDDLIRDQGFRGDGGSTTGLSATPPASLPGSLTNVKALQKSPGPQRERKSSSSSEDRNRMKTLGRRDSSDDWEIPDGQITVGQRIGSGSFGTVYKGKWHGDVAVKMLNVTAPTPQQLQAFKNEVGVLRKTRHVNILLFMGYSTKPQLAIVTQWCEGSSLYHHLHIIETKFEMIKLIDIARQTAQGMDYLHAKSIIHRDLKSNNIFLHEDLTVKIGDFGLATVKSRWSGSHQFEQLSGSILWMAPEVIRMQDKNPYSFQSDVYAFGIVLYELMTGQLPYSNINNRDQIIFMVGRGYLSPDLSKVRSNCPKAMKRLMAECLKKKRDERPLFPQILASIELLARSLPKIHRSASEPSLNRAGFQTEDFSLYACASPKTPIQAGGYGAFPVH
Method in brief: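 ADP production, initiated by catalytic activated Raf with unphosphorylated MEK, is followed by NADH oxidation through a PK/LDH coupled system. Method B differs from the kinetic Method A by a single end-point read and 150 nM final MEK.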

Cc1cc(N2CCOCC2)ncc1Nc1nccc(-c2sc(N3CCCC3)nc2-c2cccc(NS(=O)(=O)c3c(F)cccc3F)c2)n1 [Example 124]
IC50 (Colo205 tumor cells): 0.1 to 1 µM | Activity in A375P F11s Tumor Cells (A375P F11s tumor cells): + (activity of >1 μM in A375P F11s tumor cells) | IC50 (HN5 tumor cells): > 1 µM | IC50 (BT474 tumor cells): > 1 µM | IC50 (B-Raf): < 0.1 µM

CN1CCN(c2nc(-c3ccc(F)c(NS(=O)(=O)c4c(F)cccc4F)c3)c(-c3ccnc(Nc4ccc(N5CCOCC5)nc4)n3)s2)CC1 [Example 126]
IC50 (Colo205 tumor cells): < 0.1 µM | IC50 (A375P F11s tumor cells): 0.1 to 1 µM | IC50 (HN5 tumor cells): 0.1 to 1 µM | IC50 (BT474 tumor cells): > 1 µM | IC50 (B-Raf): < 0.1 µM

O=S(=O)(Nc1cc(-c2nc(N3CCOCC3)sc2-c2ccnc(Nc3ccc4c(c3)OCCO4)n2)ccc1F)c1c(F)cccc1F [Example 127]
IC50 (Colo205 tumor cells): 0.1 to 1 µM | Activity in A375P F11s Tumor Cells (A375P F11s tumor cells): + (activity of >1 μM in A375P F11s tumor cells) | IC50 (HN5 tumor cells): > 1 µM | IC50 (BT474 tumor cells): > 1 µM | IC50 (B-Raf): 0.1 to 1 µM

COc1cc(N2CCN(CCS(C)(=O)=O)CC2)c(C)cc1Nc1nccc(-c2sc(N3CCOCC3)nc2-c2cccc(NS(=O)(=O)c3c(F)cccc3F)c2)n1 [Example 128]
IC50 (Colo205 tumor cells): < 0.1 µM | IC50 (A375P F11s tumor cells): 0.1 to 1 µM | IC50 (HN5 tumor cells): 0.1 to 1 µM | IC50 (BT474 tumor cells): 0.1 to 1 µM | IC50 (B-Raf): 0.1 to 1 µM

CS(=O)(=O)c1cccc(Nc2nccc(-c3sc(N4CCOCC4)nc3-c3cccc(NS(=O)(=O)c4c(F)cccc4F)c3F)n2)c1 [Example 130]
IC50 (Colo205 tumor cells): < 0.1 µM | IC50 (A375P F11s tumor cells): < 0.1 µM | IC50 (HN5 tumor cells): 0.1 to 1 µM | IC50 (BT474 tumor cells): > 1 µM | IC50 (B-Raf): < 0.1 µM

Cc1cc(N2CCN(CCS(C)(=O)=O)CC2)ncc1Nc1nccc(-c2sc(C(C)C)nc2-c2cccc(NS(=O)(=O)c3c(F)cccc3F)c2)n1 [Example 131]
IC50 (Colo205 tumor cells): < 0.1 µM | IC50 (A375P F11s tumor cells): < 0.1 µM | IC50 (HN5 tumor cells): > 1 µM | IC50 (BT474 tumor cells): > 1 µM | IC50 (B-Raf): < 0.1 µM

Cc1nc(-c2cccc(NS(=O)(=O)c3c(F)cccc3F)c2)c(-c2ccnc(Nc3ccc(N4CCOCC4)nc3)n2)s1 [Example 133]
IC50 (Colo205 tumor cells): < 0.1 µM | IC50 (A375P F11s tumor cells): < 0.1 µM | IC50 (HN5 tumor cells): 0.1 to 1 µM | IC50 (BT474 tumor cells): > 1 µM | IC50 (B-Raf): < 0.1 µM

CS(=O)(=O)c1cccc(Nc2nccc(-c3sc(N4CCOCC4)nc3-c3cccc(NS(=O)(=O)c4c(F)cccc4F)c3Cl)n2)c1 [Example 145]
IC50 (Colo205 tumor cells): < 0.1 µM | IC50 (A375P F11s tumor cells): < 0.1 µM | IC50 (HN5 tumor cells): > 1 µM | IC50 (BT474 tumor cells): > 1 µM | IC50 (B-Raf): < 0.1 µM

O=S(=O)(Nc1cccc(-c2nc(N3CCOCC3)sc2-c2ccnc(Nc3ccc(N4CCOCC4)nc3)n2)c1Cl)c1c(F)cccc1F [Example 146]
IC50 (Colo205 tumor cells): < 0.1 µM | IC50 (A375P F11s tumor cells): < 0.1 µM | IC50 (HN5 tumor cells): < 0.1 µM | IC50 (BT474 tumor cells): > 1 µM | IC50 (B-Raf): < 0.1 µM

O=S(=O)(Nc1cccc(-c2nc(N3CCCCC3)sc2-c2ccnc(Nc3ccc(N4CCOCC4)nc3)n2)c1)c1c(F)cccc1F [Example 151]
IC50 (Colo205 tumor cells): < 0.1 µM | IC50 (A375P F11s tumor cells): < 0.1 µM | IC50 (HN5 tumor cells): 0.1 to 1 µM | IC50 (BT474 tumor cells): > 1 µM | IC50 (B-Raf): < 0.1 µM

CCNc1nc(-c2cccc(NS(=O)(=O)c3c(F)cccc3F)c2)c(-c2ccnc(Nc3ccc(N4CCOCC4)nc3)n2)s1 [Example 152]
IC50 (Colo205 tumor cells): < 0.1 µM | IC50 (A375P F11s tumor cells): < 0.1 µM | IC50 (HN5 tumor cells): 0.1 to 1 µM | IC50 (BT474 tumor cells): 0.1 to 1 µM | IC50 (B-Raf): < 0.1 µM

O=S1(=O)Cc2ccc(Nc3nccc(-c4sc(N5CCOCC5)nc4-c4cccc(NS(=O)(=O)c5c(F)cccc5F)c4F)n3)cc2C1 [Example 155]
IC50 (Colo205 tumor cells): < 0.1 µM | IC50 (A375P F11s tumor cells): < 0.1 µM | IC50 (HN5 tumor cells): 0.1 to 1 µM | IC50 (BT474 tumor cells): > 1 µM | IC50 (B-Raf): < 0.1 µM

COc1ccc(S(C)(=O)=O)cc1Nc1nccc(-c2sc(N3CCOCC3)nc2-c2cccc(NS(=O)(=O)c3c(F)cccc3F)c2F)n1 [Example 157]
IC50 (Colo205 tumor cells): < 0.1 µM | IC50 (A375P F11s tumor cells): < 0.1 µM | IC50 (HN5 tumor cells): > 1 µM | IC50 (BT474 tumor cells): > 1 µM | IC50 (B-Raf): < 0.1 µM

Cc1cc(Nc2nccc(-c3sc(C(C)(C)C)nc3-c3cccc(NS(=O)(=O)c4c(F)cccc4F)c3F)n2)ccn1 [Example 159]
IC50 (Colo205 tumor cells): < 0.1 µM | IC50 (A375P F11s tumor cells): < 0.1 µM | IC50 (HN5 tumor cells): < 0.1 µM | IC50 (BT474 tumor cells): > 1 µM | IC50 (B-Raf): < 0.1 µM

O=S(=O)(Nc1cccc(-c2ncsc2-c2ccnc(Nc3ccc(N4CCOCC4)nc3)n2)c1)c1c(F)cccc1F [Example 162]
IC50 (Colo205 tumor cells): < 0.1 µM | IC50 (A375P F11s tumor cells): < 0.1 µM | IC50 (HN5 tumor cells): 0.1 to 1 µM | IC50 (BT474 tumor cells): > 1 µM | IC50 (B-Raf): < 0.1 µM

CCNc1nc(-c2ccc(F)c(NS(=O)(=O)c3c(F)cccc3F)c2)c(-c2ccnc(Nc3ccc(N4CCOCC4)nc3)n2)s1 [Example 166]
IC50 (Colo205 tumor cells): 0.1 to 1 µM | IC50 (A375P F11s tumor cells): 0.1 to 1 µM | IC50 (HN5 tumor cells): 0.1 to 1 µM | IC50 (BT474 tumor cells): > 1 µM | IC50 (B-Raf): < 0.1 µM

CS(=O)(=O)CCN1CCN(c2ccc(Nc3nccc(-c4oc(N5CCCC5)nc4-c4cccc(NS(=O)(=O)c5c(F)cccc5F)c4F)n3)cc2F)CC1 [Example 167]
IC50 (Colo205 tumor cells): < 0.1 µM | IC50 (A375P F11s tumor cells): < 0.1 µM | IC50 (HN5 tumor cells): 0.1 to 1 µM | IC50 (BT474 tumor cells): > 1 µM | IC50 (B-Raf): < 0.1 µM
